Measured values as given in patent US9487551B2, “Small molecule compounds that control mammal-pathogenic nematodes” (California Institute of Technology, priority 2011, dated 2016).
Marks after values point to notes of the source that are not given here.

What was measured:
C. elegans = assay: Ascaroside function (Table 12); assay type: in vivo, Caenorhabditis elegans; conditions: listed = has this function
Summary of the method: (§1)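 Nematodes are exposed to single ascarosides or mixtures of them. Changes in behavior are then graded, and the label "strong" is reserved for a very strong effect.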

[1] = tested on: Steinernema riobrave, S. diaprepesi, S carpocapse; assay: Ascaroside function (Table 12); assay type: in vivo, Steinernema spp.; conditions: listed = has this function
Method: (§2) Various ascarosides and ascaroside blends were administered to various nematodes described below (Table 12). […] A very strong result of affecting nematode behavior is designated in the table as “strong.”

S. feltiae IJs = assay: Dispersal assay; assay type: in vivo
Method: S. feltiae IJs were washed with MILLI-Q water three times and incubated in 6 cm petri dishes for […] with a small amount (4-5 ml) of MILLI-Q water. Nematodes were placed the following day on a 10.7 g/L agar with 1010 g/cm^2 gel strength (PhytoTechnology Lab. Shawnee Mission, Kans.). Nematode behavior was assayed on multiple plates with internal plate replicates to rule out the possibility that behavior was affected by plate composition. Approximately 300 IJs in 10 μl water were placed on an agar medium and the test compounds or extracts (1-2 μl) were placed into the nematode suspension. Upon absorption (˜15 minutes) of the liquid, the freely moving nematodes were video recorded for 5-10 minutes. Dispersal behavior is temperature and season dependent. During winter, the assay is effective at room temperature (22±1° C.). During summer, the assay requires a temperature controlled environment due to the effects on nematode behavior above 23° C.
Activity-guided fractionation was conducted as reported in Srinivasan et al., Nature 454:1115-18 (2008), which is hereby incorporated by reference in its entirety, with modifications. A total of 33 insect host cadavers (G. mellonella larvae) were placed into 70% EtOH and stored at −20° C. until extraction. […]

[2] = tested on: Several of the tested nematode species; assay: Retention assay; assay type: in vivo; conditions: 1 nM, 1 μM and 1 mM tested
Summary of the method: (§3)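 Sex-separated young adults (isolated at L4) placed equidistant from two 0.6 μL spots (cue vs control) on opposite sides of an E. coli OP50 lawn on NGM; 10 P. redivivus, 14 S. glaseri or 20 C. elegans males per trial. Video recorded 20 min at 1 frame/s; worm-pixel occupancy per region scored as adapted Chemotaxis Index, ≥3 trials averaged.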

[3] = tested on: Heterorhabditis bacteriophora, H. zealandica, H. floridensis; assay: Ascaroside function (Table 12); assay type: in vivo, Heterorhabditis spp.; conditions: entries without asterisk
Method: (§4) Ascarosides ascr#10, ascr#16, ascr#18, ascr#20, and ascr#22 were detected in certain species of Meloidogyne plant parasitic nematodes (FIG. 83) and identified using high-resolution mass spectrometry (FIGS. 84-88).
as §2

Panagrellus redivivus = assay: Ascaroside function (Table 12); assay type: in vivo; conditions: listed = has this function
Summary of the method: as §1

S. feltiae = assay: Ascaroside function (Table 12); assay type: in vivo, Steinernema feltiae; conditions: listed = has this function
Method: as §2

[4] = tested on: Meloidogyne javanica, M. floridensis, M. incognita, M. hapla; assay: Ascaroside function (Table 12); assay type: in vivo, Meloidogyne spp.
Method: as §4, §2

[5] = tested on: P. redivivus males and females; assay: Retention assay; assay type: in vivo; conditions: only this concentration
Summary of the method: as §3

S. glaseri males = assay: Retention assay; assay type: in vivo; conditions: only this concentration
Summary of the method: as §3

C. elegans males = assay: Retention assay; assay type: in vivo
Summary of the method: as §3

S. glaseri = assay: Ascaroside function (Table 12); assay type: in vivo; conditions: listed = has this function
Summary of the method: as §1

[6] = entries with asterisk (predicted)

Row | SMILES | Attract Males (C. elegans) | Dispersal (of dauer larvae, infectious juveniles) [1] | dispersal activity in combination with fractions B and C (S. feltiae IJs; ascr#9 40 pmol/μl, ascr#11 1.3 pmol/μL) | dispersal behavior of S. feltiae IJs (S. feltiae IJs; tested alone, physiologically relevant concentration) | preference for ascaroside-conditioned areas [2] | Dispersal (of dauer larvae, infectious juveniles) [3] | Attract Males (Panagrellus redivivus) | Dispersal (of dauer larvae, infectious juveniles) (S. feltiae) | Dispersal (of dauer larvae, infectious juveniles) ([4]; entries without asterisk) | Repel Females/Herm. ([4]; entries without asterisk) | concentration of conditioned regions preferred [5] | concentration of conditioned regions preferred (S. glaseri males) | concentration of conditioned regions preferred (C. elegans males) | Attract Males (S. glaseri) | predicted function in Meloidogyne species ([4]; alone, in concert, and/or in concert with ascr#9 or other ascarosides) | Dispersal (of dauer larvae, infectious juveniles) [4, 6] | Repel Females/Herm. [4, 6]
1 | C[C@H](CCC(=O)O)O[C@@H]1O[C@@H](C)[C@H](O)C[C@H]1O [ascr#9] | ascr#9 | ascr#9 | restored the original dispersal activity | did not have activity by themselves | preferred areas conditioned | ascr#9 | ascr#9 | ascr#9 | ascr#9 | ascr#9 | – | – | – | – | – | – | –
2 | CC1O[C@@H](O[C@H](C)CCCCCCC(=O)O)C(O)C[C@H]1O (some centres unmarked) [ascr#10] | ascr#10 | – | – | – | preferred areas conditioned | – | ascr#10 | – | – | – | 1 mM | 1 mM | 1 µM | ascr#10 | act as dispersants and repellants | ascr#10* | ascr#10*
